Data as given in patent publication US12180192B2, “Modulators of THR-β and methods of use thereof” (ALIGOS THERAPEUTICS, INC., priority 2019, dated 2024).

Columns and labels:
[1] = biological target: T1, human thyroid receptor beta ligand-binding domain (LBD) (Homo sapiens, UniProt P10828); test: TR-FRET thyroid receptor beta coactivator assay (THR biochemical assay, Assay 1); conditions: for EC50: THR-beta, TR-FRET coactivator assay, read-out: Activity category Assay 1 (EC50, THR-beta agonist); for Emax: Table 5, Assay 1, THRβ, read-out: Activity category Assay 1 THRβ (Emax)
T1 construct: purchased Invitrogen
T1 sequence (P10828 217-461 limits assumed): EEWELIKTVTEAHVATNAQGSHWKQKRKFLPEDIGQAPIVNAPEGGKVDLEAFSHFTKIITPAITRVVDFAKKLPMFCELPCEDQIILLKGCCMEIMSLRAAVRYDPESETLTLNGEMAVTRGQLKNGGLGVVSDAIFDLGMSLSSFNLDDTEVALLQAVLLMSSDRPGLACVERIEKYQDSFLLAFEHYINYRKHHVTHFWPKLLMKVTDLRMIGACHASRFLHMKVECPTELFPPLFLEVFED
Procedure, shortened: (§1)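 Agonist-driven coactivator recruitment measured by TR-FRET: terbium anti-GST antibody (2 nM) bound to GST-LBD of TRβ or TRα (1 nM final, stated for β), with fluorescein SRC2-2 peptide at 200 nM. Compounds at 1% DMSO. Read after 1 h, room temperature, protected from light.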

[2] = biological target: T2, human thyroid receptor alpha ligand-binding domain (LBD) (Homo sapiens, UniProt P10827); test: TR-FRET thyroid receptor alpha coactivator assay (THR biochemical assay, Assay 1); conditions: for EC50: Table 4, THR-alpha, read-out: Activity category Assay 1 (EC50, THR-alpha agonist activity); for Emax: Table 5, THRα, read-out: Activity category Assay 1 THRα (Emax)
T2 construct: purchased Invitrogen
Procedure, shortened: as §1

[3] = tested on: CPT1A gene expression in Huh-7 cells; test: Huh-7 differential gene expression, CPT1A RT-qPCR (Assay 3); type: cell-based; conditions: Homo sapiens, Huh-7, 24 h, Table 6, Huh-7 cells, CPT1A, 24 hr treatment; for EC50: read-out: Activity category Assay 3 EC50; for Emax: read-out: Activity category Assay 3 Emax
Procedure, shortened: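 Huh-7 cells in DMEM with 10% resin-stripped (TH-depleted) FBS were treated 24 hr with compounds at 0.1% DMSO, in biological duplicates. CPT1A mRNA was measured by TaqMan RT-qPCR against ACTB and TFG and quantified by 2-ΔΔCt. EC50 and Emax came from four-parameter logistic fits with no top constraint.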

T2 sequence (P10827 163-410 isoform P10827-2 limits assumed, other chains not shown): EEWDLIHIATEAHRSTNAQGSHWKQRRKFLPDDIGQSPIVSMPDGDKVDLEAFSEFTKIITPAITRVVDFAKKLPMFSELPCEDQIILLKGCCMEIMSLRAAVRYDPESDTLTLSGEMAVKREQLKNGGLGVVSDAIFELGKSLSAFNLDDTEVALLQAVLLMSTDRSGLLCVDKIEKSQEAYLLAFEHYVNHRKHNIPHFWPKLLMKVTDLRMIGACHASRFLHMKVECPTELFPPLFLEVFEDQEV

EC50 [1] [nM] | Emax [1] [%] | EC50 [2] [nM] | Emax [2] [%] | EC50 [3] [nM] | SMILES | Emax [3] [%]
< 50 | > 75 | 250 to 1000 | 50 to 75 | < 100 | Cc1cc(-n2nc(N)c(=O)[nH]c2=O)cc(C)c1Cc1cc2c(C(C)C)c[nH]c2cn1 [Compound 157, 6-amino-2-[4-[(3-isopropyl-1H-pyrrolo[2,3-c]pyridin-5-yl)methyl]-3,5-dimethyl-phenyl]-1,2,4-triazine-3,5-dione] | > 75
< 50 | < 50 | 250 to 1000 | < 50 | > 100 | Nc1nn(-c2cc(Cl)c(Oc3cc(C4Cc5ccccc54)c(=O)[nH]n3)c(Cl)c2)c(=O)[nH]c1=O (stereo not drawn) [Compound 158] | < 50
